The target of the experiment is NR1/NR2B (Homo sapiens (Human), UniProt Q05586+Q13224). The experiment is described as follows: Cell assay: FDSS Ca2+ influx inhibition in HEK293 cells expressing NR1/NR2B.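 Also: Fluo-8 Ca2+ signal read on Hamamatsu FDSS 6000 after glutamate, glycine and Ca2+ challenge following 10 min compound preincubation, end/baseline fluorescence ratio compared with MK801 control.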 The following applies: Ca2+ influx.
Where [1] appears, read: NR2B NAM IC50, HEK293 cells expressing NR1/NR2B.
Where [2] appears, read: Binned Activity, HEK293 cells expressing NR1/NR2B, binned NR2B NAM IC50.

Molecules are shown by their SMILES. Bounds are passed on as bounds.

Sequence of NR1/NR2B (Q13224 27-1484, other chains not shown): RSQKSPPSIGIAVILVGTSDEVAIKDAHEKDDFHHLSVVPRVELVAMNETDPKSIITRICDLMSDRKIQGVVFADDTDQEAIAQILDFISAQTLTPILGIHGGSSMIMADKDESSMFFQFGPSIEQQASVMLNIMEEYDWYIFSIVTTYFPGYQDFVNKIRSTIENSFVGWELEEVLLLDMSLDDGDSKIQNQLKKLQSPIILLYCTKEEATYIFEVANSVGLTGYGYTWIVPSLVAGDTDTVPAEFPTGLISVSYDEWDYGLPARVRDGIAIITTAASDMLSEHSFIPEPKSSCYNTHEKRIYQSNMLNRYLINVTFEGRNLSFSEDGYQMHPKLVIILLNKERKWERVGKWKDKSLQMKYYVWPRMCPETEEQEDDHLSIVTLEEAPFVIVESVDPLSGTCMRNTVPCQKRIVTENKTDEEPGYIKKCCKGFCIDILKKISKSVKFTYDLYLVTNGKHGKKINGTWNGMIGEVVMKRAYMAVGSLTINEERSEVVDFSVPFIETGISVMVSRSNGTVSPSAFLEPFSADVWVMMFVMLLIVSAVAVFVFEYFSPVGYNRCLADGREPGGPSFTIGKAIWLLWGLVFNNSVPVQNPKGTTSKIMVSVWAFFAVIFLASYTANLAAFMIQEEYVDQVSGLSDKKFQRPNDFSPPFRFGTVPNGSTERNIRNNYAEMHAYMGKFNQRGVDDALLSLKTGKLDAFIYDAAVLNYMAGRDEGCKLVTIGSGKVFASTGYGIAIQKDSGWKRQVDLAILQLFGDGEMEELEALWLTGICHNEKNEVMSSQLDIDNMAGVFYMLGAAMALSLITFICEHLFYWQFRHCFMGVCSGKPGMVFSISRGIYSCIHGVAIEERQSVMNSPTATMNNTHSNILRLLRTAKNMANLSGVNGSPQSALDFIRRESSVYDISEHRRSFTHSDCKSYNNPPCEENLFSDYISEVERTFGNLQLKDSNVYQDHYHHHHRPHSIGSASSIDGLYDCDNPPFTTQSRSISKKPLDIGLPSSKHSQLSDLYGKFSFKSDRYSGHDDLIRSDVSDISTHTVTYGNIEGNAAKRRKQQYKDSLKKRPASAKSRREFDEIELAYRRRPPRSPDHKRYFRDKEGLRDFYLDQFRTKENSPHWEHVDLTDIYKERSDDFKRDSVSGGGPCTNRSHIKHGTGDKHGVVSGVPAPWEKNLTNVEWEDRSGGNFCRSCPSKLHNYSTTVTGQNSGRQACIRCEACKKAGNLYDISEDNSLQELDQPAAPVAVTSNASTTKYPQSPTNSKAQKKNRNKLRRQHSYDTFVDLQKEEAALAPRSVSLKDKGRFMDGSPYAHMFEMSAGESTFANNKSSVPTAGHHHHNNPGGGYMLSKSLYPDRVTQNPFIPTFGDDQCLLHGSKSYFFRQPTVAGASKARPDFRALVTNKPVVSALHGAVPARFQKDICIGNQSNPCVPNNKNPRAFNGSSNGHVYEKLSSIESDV

Compound `Oc1ccc(C(O)CN2C[C@@H]3C[C@@](O)(Cc4cccc(F)c4F)C[C@@H]3C2)nc1` (mixture of isomers) [Example 248, rac-(3aR,5r,6aS)-5-(2,3-difluorobenzyl)-2-(2-hydroxy-2-(5-hydroxypyridin-2-yl)ethyl)octahydrocyclo-penta[c]pyrrol-5-ol] returned an IC50 under setting [1] of 0.0476 µM.
In the case of `O=c1ccc(C(O)CN2C[C@@H]3C[C@@](O)(Cc4ccccc4)C[C@@H]3C2)n[nH]1` (mixture of isomers) [Example 158, rac-6-(2-((3aR,5r,6aS)-5-benzyl-5-hydroxyhexahydrocyclo-penta[c]pyrrol-2(1H)-yl)-1-hydroxyethyl)pyridazin-3(2H)-one], the IC50 reads like this: under setting [2], greater than 10 µM; under setting [1], no less than 10 µM.
The matching figures for `COc1cccc(NC(=O)N2C[C@@H]3C[C@@](O)(c4ccc(C(C)(C)C)cc4)C[C@@H]3C2)c1` [Example 51]: greater than 10 µM and no less than 10 µM.
For `CC(C)(C)c1ccc([C@]2(O)C[C@H]3CN(CC(O)c4cccc(F)c4)C[C@H]3C2)cc1` (mixture of isomers) [Example 71, rac-5-(4-tert-butylphenyl)-2-[2-(3-fluorophenyl)-2-hydroxyethyl]-octahydrocyclopenta[c] pyrrol-5-ol], in that order: greater than 10 µM and no less than 10 µM.
With `CC(C(O)c1ccc(O)cc1)N1C[C@@H]2C[C@@](O)(c3ccc(C(C)(C)C)cc3)C[C@@H]2C1` (mixture of isomers) [Example 96, rac-5-(4-tert-butylphenyl)-2-[1-hydroxy-1-(4-hydroxyphenyl)propan-2-yl]-octahydrocyclopenta[c] pyrrol-5-ol], half-maximal inhibition under setting [1] (IC50) required 10.5 µM.
Still for that read-out and setting: the figure for `Cc1ccccc1C[C@]1(O)C[C@H]2CN(CC(O)c3ccc(O)cc3)C[C@H]2C1` (mixture of isomers) [Example 185, rac-(3aR,5r,6aS)-2-(2-hydroxy-2-(4-hydroxyphenyl)ethyl)-5-(2-methylbenzyl)octahydro-cyclopenta[c]pyrrol-5-ol] is 0.0349 µM.
Take `OC(CN1C[C@@H]2C[C@@](O)(c3ccc(F)cc3)C[C@@H]2C1)c1cccc(C(F)(F)F)c1` (mixture of isomers) [Example 75, rac-5-(4-fluorophenyl)-2-{2-hydroxy-2-[3-(trifluoromethyl)phenyl]ethyl}-octahydrocyclopenta[c] pyrrol-5-ol]: the 50% inhibitory concentration (IC50) is, setting by setting: under setting [2], greater than 10 µM; under setting [1], no less than 10 µM.
Take `Oc1ccc(C(O)CN2C[C@@H]3C[C@@](O)(Cc4ccccc4)C[C@@H]3C2)cn1` (mixture of isomers) [Example 181, rac-5-{2-[(3aR,5R,6aS)-5-benzyl-5-hydroxy-octahydrocyclopenta[c]pyrrol-2-yl]-1-hydroxyethyl}pyridin-2-ol]: the half-inhibitory concentration (IC50) was greater than 10 µM under setting [2] and no less than 10 µM under setting [1].
For `O=C(Nc1ccc(Cl)c(C(F)(F)F)c1)N1C[C@@H]2C[C@@](O)(c3ccc(F)cc3)C[C@@H]2C1` [Example 43], in that order: greater than 10 µM and no less than 10 µM.
Take `Cc1ccccc1[C@]1(O)C[C@H]2CN(C(=O)Nc3ccc(F)cc3)C[C@H]2C1` [Example 13]: the 50% inhibitory concentration (IC50) reads like this: under setting [2], greater than 10 µM; under setting [1], no less than 10 µM.
As for `CC(C(=O)c1ccc(O)cc1)N1C[C@@H]2C[C@@](O)(c3ccc(C(C)(C)C)cc3)C[C@@H]2C1` (mixture of isomers) [Example 93, rac-2-[5-(4-tert-butylphenyl)-5-hydroxy-octahydrocyclopenta[c]pyrrol-2-yl]-1-(4-hydroxyphenyl)propan-1-one], the 50% inhibitory concentration (IC50) is greater than 10 µM under setting [2] and no less than 10 µM under setting [1].
Turning to `OC(CN1C[C@@H]2C[C@@](O)(c3ccc(F)cc3)C[C@@H]2C1)c1ccc(Cl)cc1Cl` (mixture of isomers) [Example 76, rac-2-[2-(2,4-dichlorophenyl)-2-hydroxyethyl]-5-(4-fluorophenyl)-octahydrocyclopenta[c] pyrrol-5-ol], the concentration for half-maximal inhibition (IC50) reads like this: under setting [2], greater than 10 µM; under setting [1], no less than 10 µM.
The matching figures for `Oc1ccc(C(O)CN2C[C@@H]3C[C@](F)(Cc4ccccc4)C[C@@H]3C2)cc1F` (mixture of isomers) [Example 316, rac-4-(2-((3aR,5s,6aS)-5-benzyl-5-fluoro-hexahydrocyclopen-ta[c]pyrrol-2(1H)-yl)-1-hydroxyethyl)-2-fluorophenol]: less than 0.1 µM and 0.0364 µM.
Take `CC(C(=O)c1ccc(O)cc1)N1C[C@H]2CC(Cc3ccccc3)C[C@H]2C1` (mixture of isomers) [Example 296, rac-2-((3aR,6aS)-5-benzylhexahydrocyclo-penta[c]pyrrol-2(1H)-yl)-1-(4-hydroxyphenyl)propan-1-one]: the IC50 is 0.1 to 1 µM under setting [2] and 0.125 µM under setting [1].
For `COc1cccc([C@]2(O)C[C@H]3CN(C(=O)Nc4cccc(C(F)(F)F)c4)C[C@H]3C2)c1` [Example 16], in that order: greater than 10 µM and no less than 10 µM.
The matching figures for `Oc1ccc(C(O)CN2C[C@@H]3C[C@@](O)(CCc4ccccc4)C[C@@H]3C2)cc1` (mixture of isomers) [Example 321, rac-2-(2-hydroxy-2-(4-hydroxyphenyl)ethyl)-5-phenethyloctahydro-cyclopenta[c] pyrrol-5-ol]: greater than 10 µM and no less than 10 µM.
With `CO[C@@]1(Cc2ccccc2)C[C@H]2CN(CC(O)c3ccc(O)c(F)n3)C[C@H]2C1` (mixture of isomers) [Example 198, rac-6-(2-((3aR,5r,6aS)-5-benzyl-5-methoxyhexahydrocyclo-penta[c]pyrrol-2(1H)-yl)-1-hydroxyethyl)-2-fluoropyridin-3-ol], under setting [1], half-maximal inhibition (IC50) was put at 0.476 µM.
As to `OC(CN1C[C@H]2C[C@@H](c3ccccc3)C[C@H]2C1)c1cccc(C(F)(F)F)c1` (mixture of isomers) [Example 116, rac-2-(5-phenylhexahydrocyclo-penta[c]pyrrol-2(1H)-yl)-1-(3-(trifluoromethyl)phenyl) ethanol], the IC50 was greater than 10 µM under setting [2] and no less than 10 µM under setting [1].
For `O=C(Nc1cccc(Cl)c1)N1C[C@@H]2C[C@@](O)(c3ccc(F)cc3)C[C@@H]2C1` [Example 39], in that order: greater than 10 µM and no less than 10 µM.
For `Oc1ccc(C(O)CN2C[C@@H]3C[C@](F)(Cc4ccccc4)C[C@@H]3C2)cc1` (mixture of isomers) [Example 311, rac-4-(2-((3aR,5s,6aS)-5-benzyl-5-fluorohexahydrocyclo-penta[c]pyrrol-2(1H)-yl)-1-hydroxyethyl) phenol], the IC50 is, setting by setting: under setting [2], 0.1 to 1 µM; under setting [1], 0.448 µM.
Take `CC(C)(C)C(=O)Nc1ccc(C(O)CN2C[C@@H]3C[C@@](O)(Cc4ccccc4)C[C@@H]3C2)cn1` (mixture of isomers) [Example 286, rac-N-(5-(2-(5-benzyl-5-hydroxyhexahydrocyclo-penta[c]pyrrol-2(1H)-yl)-1-hydroxyethyl)pyridin-2-yl)pivalamide]: the IC50 was greater than 10 µM under setting [2] and no less than 10 µM under setting [1].
With `Oc1ccc(C(O)CN2C[C@@H]3C[C@@](O)(Cc4ccc(F)cc4)C[C@@H]3C2)nc1` (mixture of isomers) [Example 168, rac-(3aR,5r,6aS)-5-(4-fluorobenzy)-2-(2-hydroxy-2-(5-hydroxypyridin-2-yl)ethyl)octahydrocyclo-penta[c]pyrrol-5-ol], the concentration for half-maximal inhibition (IC50) under setting [1] came to 0.0178 µM.
On to `Oc1ccc(C(O)CN2C[C@@H]3C[C@@](O)(Cc4ccc(F)c(F)c4)C[C@@H]3C2)cc1` (mixture of isomers) [Example 253, rac-(3aR,5r,6aS)-5-(3,4-difluorobenzyl)-2-(2-hydroxy-2-(4-hydroxyphenyl)ethyl) octahydrocyclopenta[c] pyrrol-5-ol], for which, under setting [1], inhibition was half-maximal at 0.0315 µM (IC50).
`COc1cccc([C@]2(O)C[C@H]3CN(C(=O)Nc4ccc(Cl)c(C(F)(F)F)c4)C[C@H]3C2)c1` [Example 34, N-[4-chloro-3-(trifluoromethyl)phenyl]-5-hydroxy-5-(3-methoxyphenyl)-octahydrocyclopenta[c] pyrrole-2-carboxamide]: the IC50 under setting [2] is greater than 10 µM.
As to `COc1cccc([C@]2(O)C[C@H]3CN(CC(O)c4ccc(Cl)cc4Cl)C[C@H]3C2)c1` (mixture of isomers) [Example 74, rac-2-[2-(2,4-dichlorophenyl)-2-hydroxyethyl]-5-(3-methoxyphenyl)-octahydrocyclopenta[c] pyrrol-5-ol], the concentration for half-maximal inhibition (IC50) reads like this: under setting [2], greater than 10 µM; under setting [1], no less than 10 µM.
Regarding `[2H]C(O)(CN1C[C@@H]2C[C@@](O)(Cc3ccccc3)C[C@@H]2C1)c1ccc(O)cc1` (mixture of isomers) [Example 281, deuterated rac-(3aR,6aS)-5-benzyl-2-((S)-2-hydroxy-2-(4-hydroxyphenyl)ethyl) octahydrocyclopenta [c]pyrrol-5-ol], the IC50 runs as follows: under setting [2], less than 0.1 µM; under setting [1], 0.0174 µM.
With `COC(=O)c1ccc(NC(=O)N2C[C@@H]3C[C@@](O)(c4ccc(C(C)(C)C)cc4)C[C@@H]3C2)cc1` [Example 50], the IC50 under setting [2] was greater than 10 µM.
As to `CC(C(=O)c1ccc(O)cc1)N1C[C@@H]2C[C@@](O)(c3ccccc3)C[C@@H]2C1` (mixture of isomers) [Example 90, rac-2-(5-hydroxy-5-phenylhexahydrocyclo-penta[c]pyrrol-2(1H)-yl)-1-(4-hydroxyphenyl)propan-1-one], the IC50 was greater than 10 µM under setting [2] and no less than 10 µM under setting [1].
Take `Oc1ccc(C(O)CN2C[C@@H]3C[C@@](F)(Cc4ccccc4)C[C@@H]3C2)cc1` (mixture of isomers) [Example 313, rac-4-(2-((3aR,5r,6aS)-5-benzyl-5-fluoro-hexahydrocyclopen-ta[c]pyrrol-2(1H)-yl)-1-hydroxyethyl)phenol]: the IC50 was less than 0.1 µM under setting [2] and 0.0269 µM under setting [1].
For `N#Cc1cccc(NC(=O)N2C[C@@H]3C[C@@](O)(Cc4ccccc4)C[C@@H]3C2)c1` [Example 123, (3aR,5r,6aS)-5-benzyl-N-(3-cyanophenyl)-5-hydroxyhexahydrocyclo-penta[c]pyrrole-2(1H)-carboxamide], in that order: greater than 10 µM and no less than 10 µM.
In the case of `COc1ccccc1CNC(=O)N1C[C@@H]2C[C@@](O)(c3ccccc3)C[C@@H]2C1` [Example 21, 5-hydroxy-N-[(2-methoxyphenyl)methyl]-5-phenyl-octahydrocyclopenta[c] pyrrole-2-carboxamide], the half-inhibitory concentration (IC50) under setting [2] is greater than 10 µM.

For orientation: IC50 means the concentration needed to halve the response being measured. A higher IC50 goes with weaker potency.
